Results published in patent US20210276960A1, “INHIBITORS OF TISSUE TRANSGLUTAMINASE 2 (TG2) AND USES THEREOF” (Northwestern University, priority 2020, published 2021).

What was measured:
[1] = target: T1, His-tagged TG2 / biotinylated FN42 interaction (Homo sapiens, UniProt P21980); experiment: ELISA of the TG2-FN interaction; assay type: binding
T1 construct: made in house
T1 sequence (P21980 1-687): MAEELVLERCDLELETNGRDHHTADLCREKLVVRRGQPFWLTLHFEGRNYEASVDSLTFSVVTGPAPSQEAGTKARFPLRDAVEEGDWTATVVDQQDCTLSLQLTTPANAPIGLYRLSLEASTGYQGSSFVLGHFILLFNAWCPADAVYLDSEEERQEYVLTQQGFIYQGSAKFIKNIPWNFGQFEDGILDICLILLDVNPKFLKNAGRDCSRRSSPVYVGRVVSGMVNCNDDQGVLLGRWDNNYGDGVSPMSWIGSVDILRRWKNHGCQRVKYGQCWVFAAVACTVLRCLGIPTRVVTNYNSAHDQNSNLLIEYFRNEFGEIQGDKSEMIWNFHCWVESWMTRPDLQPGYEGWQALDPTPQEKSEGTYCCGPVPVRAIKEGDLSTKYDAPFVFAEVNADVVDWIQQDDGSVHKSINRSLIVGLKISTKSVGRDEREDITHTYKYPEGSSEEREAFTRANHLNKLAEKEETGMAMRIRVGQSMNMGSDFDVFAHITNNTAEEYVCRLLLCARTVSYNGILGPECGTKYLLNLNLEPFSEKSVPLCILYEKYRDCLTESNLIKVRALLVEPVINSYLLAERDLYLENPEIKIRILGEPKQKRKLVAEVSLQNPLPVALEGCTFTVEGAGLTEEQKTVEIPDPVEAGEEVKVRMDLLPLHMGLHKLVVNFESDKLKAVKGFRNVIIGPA
Description: Confirmation using ELISA: An independent ELISA validated inhibition of TG2/FN complex formation by SMIs^11. The ELISA assay measured the binding between His6-TG2 captured to the wells by anti-His antibodies and biotinylated FN42 detectable with streptavidin-HRP (FIG. 12A). […] Selected compounds (at concentrations between 5 and 10 μM) inhibited the ELISA signal by 29.7% to 69.5%^11.
ELISA measured the interaction between recombinant His tagged TG2 (rTG2-His) and the biotinylated 42 kD fragment of FN (FN42) which were expressed and purified, as previously described (Yakubov et al., 2014). Briefly, a mixture of 10 nMrTG2-His and selected SMIs or DMSO was added to 96 well plates pre-coated with monoclonal anti-His antibody (Roche, Indianapolis, Ind.; 1:6000). The mixture was incubated for 1 h at RT with 5 nM biotinylated FN42. After washing, wells were incubated with streptavidin-HRP (Cell Signaling, #3999; 1:2000). The reaction was developed with 3,3′,5,5′tetramethylbenzidine (TMB) substrate (BD Biosciences, #555214) and the optical density at […] was measured by using a BioTek microplate reader (Winooski, Vt., USA). Data shown are means±SEM of two independent experiments (n=6).

[2] = test system: SKOV3 cells adhesion to FN; experiment: Solid phase adhesion assay to FN, SKOV3; assay type: cell-based
Description: Cells labeled with calcein AM (Life Technologies, #L3224) were seeded at a density of 4×10^4 cells in 96-well plates pre-coated with FN (5 μg/mL, Sigma, #F1141), and blocked using 1% BSA (Sigma, #A9647) in PBS in the presence of selected compounds diluted at the specified concentrations, in serum free media. After 45 minutes, unattached cells were washed using PBS containing 1 mM MgCl2(Sigma, #M8266) and adherent cells were quantified in a SpectraMaxGeminiXS fluorescence plate reader (Molecular Devices, Palo Alto, Calif.) at 530 nm wavelength. Experiments were performed inquadruplicate and repeated at least twice.

[3] = test system: OVCAR5 cells attachment onto FN; experiment: Early attachment assay with IF staining; assay type: cell-based, human; conditions: 1 μM, 72 hours pre-treatment, 30 minutes after seeding
Description: OVCAR5 cells were seeded(1×10^5 cells/well) in 6-well plates (Denville Scientific) and treated for 72 hrs with 1 μM MT-4, TG53 or vehicle control (DMSO). After drug exposure, cells were detached using Cellstripper (cellgro, #25-056-CI, CORNING, Manassas, Va., USA), centrifuged, and counted. Before seeding for either confocal microscopy or western blotting, they were incubated in serum free media in the presence of drugs for 15-90 minutes, as stated in the figure legends.
In order to analyze cell adhesion complex proteins expression and localization upon early attachment, cells were treated as stated above and then seeded onto FN-coated cover slips for 30 minutes at 37° C. Samples were fixed in 4% p-formaldehyde (PFA) and permeabilized with 0.2% Triton-X-100. After blocking, focal contacts were identified by using anti-vinculin antibodies, activation of integrins signaling pathway was assessed by antibodies against phosphorylated focal adhesion kinase (FAK), while actin cytoskeleton was labeled by Alexa Fluor 488-conjugated phalloidin (Life Technologies, #A12379). Nuclei were stained with 1:10000 Hoechst (Thermo Scientific) and specimens were mounted in Prolong Gold anti-fadereagent (Life Technologies). Cells were analyzed by laser scanning using a Nikon A1RGaAsPConfocal Laser Microscope. For co-localization analyses, SKOV3 cells were treated with DMSO (control) or TG53 (1 μM) and plated on FN-coated chamber slides (BD Biosciences) for 72 hrs. IF analysis was performed as previously described (Condello et al., 2013b). Briefly, after fixation, permeabilization and blocking, cells were incubated overnight with p-FAK (Y576/577), c-Src, p-Src (Y416), integrin β1 or TG2 primary antibodies in blocking buffer at 4° C., followed by 1 h incubation with Cy5-conjugated anti-mouse secondary antibody (1:500; Zymed Laboratories; South San Francisco, Calif., USA) or Alexa Fluor 488 anti-rabbit secondary antibody (1:1000; Molecular Probes, Eugene, Oreg., USA) at RT. Isotype-specific IgG was used as a negative control. Nuclei were visualized by 4′,6-diamidino-2-phenylindole (DAPI) staining (Vectashield; Vector Laboratories, Burlingame, Calif., USA). Analysis was done using an LSM 510 META confocal multiphoton microscope system (Carl Zeiss Inc., Thomwood, N.Y., USA) under UV excitation at 630 nm (for Cy5), 488 nm (for Alexa Fluor 488), and 340 nm (for DAPI) and using a 60× magnification objective. Colocalization percentage was calculated by normalizing the pixels corresponding to Cy5 or Alexa Fluor 488 emissions to DAPI pixels in the same cell, followed by merging area of green with area of red and determination of average of overlap areas. A Student' t test was calculated to determine statistical significance of differences between drug treated and DMSO control treated cells.

COc1ccc(Cl)cc1C(=O)Nc1ccc(Nc2nc(C)cc(N(C)C)n2)cc1 [TG53]
binding mode (Lineweaver-Burk plot analysis) [1]: competes for the same binding site in TG2 as FN42 | inhibition of ELISA signal ([1]; 5 μM): 65% | Ki ([1]; saturation curves of FN42 with increasing TG53, read-out: inhibition constant Ki): 4.15 µM | cell adhesion to FN ([2]; 25 μM, FIG. 13A): inhibited cell adhesion | inhibition of cell adhesion to FN, TG2 expressing vs AS-TG2 cells ([2]; 25 μM, SKOV3pcDNA3.1 vs SKOV3-ASTG2): more pronounced in TG2 expressing SKOV3pcDNA3.1 cells | cell adhesion to FN, dose dependence and specificity ([2]; 1-25 μM, TG53 compared with TG288): dose-dependent | FAK phosphorylation (IF) [3]: decreased | number of focal contacts with FN-coated substrate (vinculin) [3]: decreased

Cc1cc(N(C)C)nc(Nc2ccc(NC(=O)Cc3ccccc3)cc2)n1 [MT-4]
inhibition of rTG2-FN42 interaction relative to TG53 ([1]; 10 μM): slightly more potently than TG53 | cell adhesion to FN, dose dependence ([2]; 2 μM-25 μM): dose-dependent inhibitory effect | OC cells' adhesion to FN ([2]; FN 5 μg/mL, FIG. 2E): potently blocked | FAK phosphorylation (IF) [3]: decreased | number of focal contacts with FN-coated substrate (vinculin) [3]: decreased
